# Data published in patent publication US20260285850A1, “SUBSTITUTED OXAZOLIDINONES AND IMIDAZOLINONES AS HERBICIDES” (FMC CORPORATION, priority 2023, published 2026).
# How the values were obtained:
# Assay type in all cases: in vivo
# [1] = tested on: barnyardgrass (Echinochloa crus-galli); assay: Test A preemergence soil spray, visual injury rating 0-100; settings: 10 days
# How it was run: (§1)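 Visual injury ratings (0, no effect; 100, complete control) were assigned relative to untreated plants 10 days after treatment. Test chemicals, formulated with a surfactant-containing non-phytotoxic solvent, were applied in loam-sand soil either as a directed soil spray before emergence or to emerged plants, and plants were kept in a greenhouse.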
# [2] = tested on: blackgrass (Alopecurus myosuroides); assay: as above; settings: 10 days
# How it was run: as §1
# corn (Zea mays) [3] = assay: as above; settings: 10 days
# How it was run: as §1
# [4] = tested on: green foxtail (Setaria viridis); assay: as above; settings: 10 days
# How it was run: as §1
# kochia (Bassia scoparia) [5] = assay: as above; settings: 62 g ai/ha, 10 days, 0 = no effect, 100 = complete control
# How it was run: as §1
# [6] = tested on: oat, wild (wild oat, Avena fatua); assay: as above; settings: 10 days
# How it was run: as §1
# [7] = tested on: palmer (palmer amaranth, palmer pigweed, Amaranthus palmeri); assay: as above; settings: 10 days
# How it was run: as §1
# [8] = tested on: ragweed (common ragweed, Ambrosia artemisiifolia); assay: as above; settings: 10 days
# How it was run: as §1
# [9] = tested on: ryegrass, Italian (italian ryegrass, Lolium multiflorum); assay: as above; settings: 10 days
# How it was run: as §1
# soybean (Glycine max) [10] = assay: as above; settings: 10 days
# How it was run: as §1
# [11] = tested on: wheat (Triticum aestivum); assay: as above; settings: 10 days
# How it was run: as §1
# [12] = tested on: barnyardgrass (Echinochloa crus-galli); assay: Test A postemergence application, visual injury rating 0-100
# How it was run: as §1
# [13] = tested on: blackgrass (Alopecurus myosuroides); assay: as above
# How it was run: as §1
# corn (Zea mays) [14] = assay: as above
# How it was run: as §1
# [15] = tested on: galium (catchweed bedstraw, Galium aparine); assay: as above
# How it was run: as §1
# [16] = tested on: green foxtail (Setaria viridis); assay: as above
# How it was run: as §1
# [17] = tested on: horseweed (Erigeron canadensis); assay: as above
# How it was run: as §1
# kochia (Bassia scoparia) [18] = assay: as above
# How it was run: as §1
# [19] = tested on: oat, wild (wild oat, Avena fatua); assay: as above
# How it was run: as §1
# [20] = tested on: palmer (palmer amaranth, palmer pigweed, Amaranthus palmeri); assay: as above
# How it was run: as §1
# [21] = tested on: ragweed (common ragweed, Ambrosia artemisiifolia); assay: as above
# How it was run: as §1
# [22] = tested on: ryegrass, Italian (italian ryegrass, Lolium multiflorum); assay: as above
# How it was run: as §1
# soybean (Glycine max) [23] = assay: as above
# How it was run: as §1
# [24] = tested on: wheat (Triticum aestivum); assay: as above
# How it was run: as §1
# [25] = tested on: barnyardgrass (Echinochloa crusgalli); assay: Test B flooded paddy test, visual plant response rating 0-100; settings: 250 g ai/ha, Flood, applied to paddy water, evaluated after 13 days
# How it was run: (§2)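 Paddy-water application: test compounds went directly into water flooded 3 cm above the soil surface, with plants at 2 leaves. After a 13-day greenhouse period, responses were judged by eye relative to controls; a dash marks an untested entry.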
# [26] = tested on: ducksalad (Heteranthera limosa); assay: as above; settings: 250 g ai/ha, Flood, applied to paddy water, evaluated after 13 days
# How it was run: as §2
# rice (Oryza sativa) = assay: as above; settings: 250 g ai/ha, Flood, applied to paddy water, evaluated after 13 days
# How it was run: as §2
# [27] = tested on: sedge, umbrella (small-flower umbrella sedge, Cyperus difformis); assay: as above; settings: 250 g ai/ha, Flood, applied to paddy water, evaluated after 13 days
# How it was run: as §2
# [28] = 62 g ai/ha, 0 = no effect, 100 = complete control
# [29] = 62 g ai/ha, postemergence, 10 days, 0 = no effect, 100 = complete control
# [30] = Postemergence, 16 g ai/ha, greenhouse 10 days, 0 no effect, 100 complete control
smiles,measurement,setting,value
CCOC(=O)C1C=CC(NC(=O)C2(C)CN(c3cc(C)cc(C)c3)C(=O)O2)C1 (stereo not drawn) [Compound 116],Barnyardgrass plant response rating,"[1]; 16 g ai/ha, 0 to 100 scale",30
same,Barnyardgrass plant response rating (0-100),[1]; [28],100
same,Blackgrass plant response rating,"[2]; 16 g ai/ha, 0 to 100 scale",0
same,Blackgrass plant response rating (0-100),[2]; [28],70
same,Corn plant response rating,"corn (Zea mays) [3]; 16 g ai/ha, 0 to 100 scale",0
same,Corn plant response rating (0-100),corn (Zea mays) [3]; [28],10
same,"Foxtail, Green plant response rating","[4]; 16 g ai/ha, 0 to 100 scale",0
same,"Foxtail, Green plant response rating (0-100)",[4]; [28],80
same,Kochia plant response rating (0-100),kochia (Bassia scoparia) [5],100
same,"Oat, Wild plant response rating","[6]; 16 g ai/ha, 0 to 100 scale",0
same,"Oat, Wild plant response rating (0-100)",[6]; [28],50
same,"Pigweed, Palmer plant response rating","[7]; 16 g ai/ha, 0 to 100 scale",10
same,"Pigweed, Palmer plant response rating (0-100)",[7]; [28],100
same,Ragweed plant response rating,"[8]; 16 g ai/ha, 0 to 100 scale",0
same,Ragweed plant response rating (0-100),[8]; [28],0
same,"Ryegrass, Italian plant response rating","[9]; 16 g ai/ha, 0 to 100 scale",0
same,"Ryegrass, Italian plant response rating (0-100)",[9]; [28],70
same,Soybean plant response rating,"soybean (Glycine max) [10]; 16 g ai/ha, 0 to 100 scale",0
same,Soybean plant response rating (0-100),soybean (Glycine max) [10]; [28],0
same,Wheat plant response rating,"[11]; 16 g ai/ha, 0 to 100 scale",0
same,Wheat plant response rating (0-100),[11]; [28],30
same,Barnyardgrass plant response rating (0-100),[12]; [29],100
same,Barnyardgrass plant response rating (0 to 100 scale),[12]; [30],70
same,Blackgrass plant response rating (0-100),[13]; [29],90
same,Blackgrass plant response rating (0 to 100 scale),[13]; [30],80
same,Corn plant response rating (0-100),corn (Zea mays) [14]; [29],100
same,Corn plant response rating (0 to 100 scale),corn (Zea mays) [14]; [30],40
same,Galium plant response rating (0-100),[15]; [29],70
same,Galium plant response rating (0 to 100 scale),[15]; [30],60
same,"Foxtail, Green plant response rating (0-100)",[16]; [29],30
same,"Foxtail, Green plant response rating (0 to 100 scale)",[16]; [30],10
same,Horseweed plant response rating (0-100),[17]; [29],0
same,Horseweed plant response rating (0 to 100 scale),[17]; [30],0
same,Kochia plant response rating (0-100),kochia (Bassia scoparia) [18]; [29],60
same,Kochia plant response rating (0 to 100 scale),kochia (Bassia scoparia) [18]; [30],20
same,"Oat, Wild plant response rating (0-100)",[19]; [29],90
same,"Oat, Wild plant response rating (0 to 100 scale)",[19]; [30],60
same,"Pigweed, Palmer plant response rating (0-100)",[20]; [29],40
same,"Pigweed, Palmer plant response rating (0 to 100 scale)",[20]; [30],0
same,Ragweed plant response rating (0-100),[21]; [29],30
same,Ragweed plant response rating (0 to 100 scale),[21]; [30],0
same,"Ryegrass, Italian plant response rating (0-100)",[22]; [29],70
same,"Ryegrass, Italian plant response rating (0 to 100 scale)",[22]; [30],20
same,Soybean plant response rating (0-100),soybean (Glycine max) [23]; [29],60
same,Soybean plant response rating (0 to 100 scale),soybean (Glycine max) [23]; [30],50
same,Wheat plant response rating (0-100),[24]; [29],90
same,Wheat plant response rating (0 to 100 scale),[24]; [30],40
same,"Plant response rating, Barnyardgrass (0 to 100 scale, 0 is no effect and 100 is complete control)",[25],75
same,"Plant response rating, Ducksalad (0 to 100 scale, 0 is no effect and 100 is complete control)",[26],45
same,"Plant response rating, Rice (0 to 100 scale, 0 is no effect and 100 is complete control)",rice (Oryza sativa),50
same,"Plant response rating, Sedge, Umbrella (0 to 100 scale, 0 is no effect and 100 is complete control)",[27],55
